Experimental data published in patent publication US20090029992A1, “SUBSTITUTED PYRAZOLE COMPOUNDS” (priority 2007, published 2009).

Experiments:
[1] = biological target: T1, N-terminal His-tagged human Src (Homo sapiens, UniProt P12931); assay: Src kinase inhibition assay (33P-ATP filter assay); type: biochemical
T1 construct: His (N); purchased Upstate USA Inc, 706 Forest Street, Charlottesville, Va
Experimental: Compounds were assayed for Src kinase inhibitory activity using N-terminal His-tagged human Src (Upstate USA Inc, 706 Forest Street, Charlottesville, Va.). Serial dilutions of compound were assayed in a final reaction volume of 25 μL by incubating a solution of the above Src kinase (5-10 mU), 8 mM MOPS (3-(N-morpholino) propanesulfonic acid) pH 7.0, 0.2 mM EDTA (ethylenediamine tetracetic acid), 250 μM amino acid sequence KVEKIGEGTYGVVYK (Upstate USA Inc, 706 Forest Street, Charlottesville, Va.), and 10 mM magnesium acetate and [γ-^33P-ATP] (specific activity of about 500 cpm/μmol, concentration as required). The reaction was initiated by the addition of the magnesium acetate and [γ-^33P-ATP] mixture. After incubation for 40 minutes at room temperature, the reaction was stopped by the addition of 5 μL of a 3% phosphoric acid solution. A 10 μL aliquote of the reaction was then spotted onto a P30 filtermat (PerkinElmer, Wellesley, Mass.) and washed three times for five minutes in 75 mM phosphoric acid and once in methanol prior to drying and scintillation counting. Inhibition of Src activity was determined by comparison to assays that contained no inhibitor.

[2] = biological target: T2, N-terminal GST-tagged recombinant human Flt3, residues 564-end (Homo sapiens, UniProt P36888); assay: Flt3 kinase inhibition assay (33P-ATP filter assay); type: biochemical; conditions: 40 minutes at room temperature
T2 construct: recombinant human Flt3, residues 564-end; GST (N); purchased Upstate USA Inc, 706 Forest Street, Charlottesville, Va
T2 sequence (P36888 564-993 limits assumed): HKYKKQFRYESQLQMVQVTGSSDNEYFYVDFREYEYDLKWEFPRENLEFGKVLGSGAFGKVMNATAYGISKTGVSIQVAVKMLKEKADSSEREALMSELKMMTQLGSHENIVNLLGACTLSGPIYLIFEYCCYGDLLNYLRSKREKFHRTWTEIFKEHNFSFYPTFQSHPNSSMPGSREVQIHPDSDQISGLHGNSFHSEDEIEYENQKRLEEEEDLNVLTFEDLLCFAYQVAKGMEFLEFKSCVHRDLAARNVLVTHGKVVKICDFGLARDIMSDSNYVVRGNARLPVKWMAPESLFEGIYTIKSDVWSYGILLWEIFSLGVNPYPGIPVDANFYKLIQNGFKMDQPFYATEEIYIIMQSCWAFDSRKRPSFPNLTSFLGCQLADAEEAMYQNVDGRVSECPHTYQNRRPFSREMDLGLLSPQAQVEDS
Experimental: (§1) Compounds were assayed for Flt3 kinase inhibitory activity using N-terminal GST-tagged recombinant human Flt3, residues 564-end (Upstate USA Inc, 706 Forest Street, Charlottesville, Va.). Serial dilutions of compound were assayed in a final reaction volume of 25 μL by incubating a solution of the above Flt3 kinase (5-10 mU), 8 mM MOPS (3-(N-morpholino) propanesulfonic acid) pH 7.0, 0.2 mM EDTA (ethylenediamine tetracetic acid), 50 μM amino acid sequence EAIYAAPFAKKK (Upstate USA Inc, 706 Forest Street, Charlottesville, Va.), and 10 mM magnesium acetate and [γ-^33P-ATP] (specific activity of about 500 cpm/μmol, concentration as required). The reaction was initiated by the addition of the magnesium acetate and [γ-^33P-ATP] mixture. After incubation for 40 minutes at room temperature, the reaction was stopped by the addition of 5 μL of a 3% phosphoric acid solution. A 10 μL aliquote of the reaction was then spotted onto a P30 filtermat (PerkinElmer, Wellesley, Mass.) and washed three times for five minutes in 75 mM phosphoric acid and once in methanol prior to drying and scintillation counting. Inhibition of Flt3 activity was determined by comparison to assays that contained no inhibitor.

[3] = biological target: T3, N-terminal His6-tagged recombinant human KDR, residues 790-end (Homo sapiens, UniProt P35968); assay: KDR kinase inhibition assay (33P-ATP filter assay); type: biochemical
T3 construct: recombinant human KDR, residues 790-end; His6 (N); purchased Upstate USA Inc, 706 Forest Street, Charlottesville, Va
T3 sequence (P35968 790-1356 limits assumed): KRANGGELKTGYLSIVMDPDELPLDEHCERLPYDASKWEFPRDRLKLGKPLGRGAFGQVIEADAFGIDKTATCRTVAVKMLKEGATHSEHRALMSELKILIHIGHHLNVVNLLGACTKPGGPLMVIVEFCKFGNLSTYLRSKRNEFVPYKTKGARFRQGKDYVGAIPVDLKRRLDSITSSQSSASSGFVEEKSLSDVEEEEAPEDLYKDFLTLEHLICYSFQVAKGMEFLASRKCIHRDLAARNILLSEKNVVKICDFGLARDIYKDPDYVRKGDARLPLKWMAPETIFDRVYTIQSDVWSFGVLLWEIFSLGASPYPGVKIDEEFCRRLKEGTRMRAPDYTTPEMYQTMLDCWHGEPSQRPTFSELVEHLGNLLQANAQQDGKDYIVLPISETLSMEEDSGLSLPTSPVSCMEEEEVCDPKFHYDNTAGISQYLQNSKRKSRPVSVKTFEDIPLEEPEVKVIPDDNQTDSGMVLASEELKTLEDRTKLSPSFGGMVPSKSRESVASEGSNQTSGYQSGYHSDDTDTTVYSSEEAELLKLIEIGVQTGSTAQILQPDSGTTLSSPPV
Experimental: as §1, with “KDR” for “Flt3”, “His6-tagged” for “GST-tagged”, “KDR,” for “Flt3,”, “790-end” for “564-end”, “0.33 mg/mL myelin basic protein” for “50 μM amino acid sequence EAIYAAPFAKKK”

[4] = biological target: T4, recombinant Aurora A (Homo sapiens, UniProt O14965); assay: Aurora A (Aurora 2) inhibition assay, Z'-Lyte kinase assay; type: biochemical; conditions: ATP 10 μM, 1 h
T4 construct: purchased Upstate, Lake Placid, N.Y
T4 sequence (O14965 1-403): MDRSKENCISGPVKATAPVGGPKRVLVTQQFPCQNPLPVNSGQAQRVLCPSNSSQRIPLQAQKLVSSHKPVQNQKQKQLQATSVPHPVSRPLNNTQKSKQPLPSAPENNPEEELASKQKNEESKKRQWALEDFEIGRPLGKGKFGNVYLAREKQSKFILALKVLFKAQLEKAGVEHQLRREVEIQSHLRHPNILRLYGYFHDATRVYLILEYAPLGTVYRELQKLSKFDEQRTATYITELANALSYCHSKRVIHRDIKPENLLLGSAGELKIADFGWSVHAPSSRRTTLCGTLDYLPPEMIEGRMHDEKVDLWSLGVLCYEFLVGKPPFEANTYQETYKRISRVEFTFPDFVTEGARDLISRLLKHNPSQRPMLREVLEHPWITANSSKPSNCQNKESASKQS
Experimental: Compounds were tested for their potency against recombinant Aurora A (Upstate, Lake Placid, N.Y.) using the PanVera Z′-Lyte kinase assay kit—Ser/Thr 1 peptide (Invitrogen, Carlsbad, Calif.). Assays were carried out in kinase assay buffer (50 mM HEPES, pH 7.5, 10 mM MgCl2, 5 mM EGTA, 0.05% Brij-35, 2 mM DTT). Test compounds were initially dissolved in DMSO at 100× the highest tested concentration, then serially diluted to 4× test concentrations in kinase assay buffer. Next, Aurora A (final concentration 200-500 ng/mL), Z′-Lyte Ser/Thr 1 peptide (final concentration 2 μM) and ATP (final concentration 10 μM) were added according to the manufacturer's instructions. Assays were carried out in half-area 96-well white polystyrene assay plates (Corning, Corning, N.Y.) in a final volume of 20 μl. The reaction was allowed to proceed for 1 h at room temperature in the dark, at which point the development reagent and stop reagent were added according to the manufacturer's instructions. Coumarin (Ex. 400 nm, Em. 465 nm) and fluorescein (Ex. 400 nm, Em. 565 nm) fluorescence values were measured on a SpectraFluor Plus plate reader (Tecan, Durham, N.C.). The emission ratio (coumarin/fluorescein) was determined and used to calculate the percent phosphorylation for each well. Wells containing substrate but no kinase and wells containing a phosphopeptide control were used to set 0% and 100% phosphorylation values, respectively. Typically 20-40% of the substrate was phosphorylated in wells without inhibitor. Dose-response curves of relative Aurora A activity vs. inhibitor concentration were plotted with Grafit (Erithacus Software, Horley, Surrey, UK).

[5] = tested on: HCT116 cells; assay: Whole cell cytotoxicity assay, Sulforhodamine B; type: cell-based; conditions: Homo sapiens, HCT-116; HCT116, 96 hours incubation, SRB; read-out: IC50 values in this assay (HCT116 cell growth)
Experimental: Human tumor-derived cell lines, HCT116 or MCF7 (ATCC) were plated in a 96 well plate in DMEM containing 10% fetal bovine serum and 2 mM L-glutamine at a density of 500 HCT116 cells or 1,000 MCF7 cells per well and incubated at 37° C., 5% CO2, for 24 hours prior to the addition of experimental compounds. Compounds were added using the dilution series indicated to duplicate plates and the cells were incubated in media plus compound for 96 hours. An additional plate was fixed in 10% TCA at the time of the addition of compound to provide a measurement of the cell population at time zero, the time of drug addition. Following the 96 hour incubation, cells were fixed in situ by gently aspirating off the culture media and then adding 50 ul of ice cold 10% TCA per well and incubation at 4° C. for 60 minutes. The plates were washed with tap water five times and allowed to air dry for 5 minute. 50 ul of a 0.4% (w/v) Sulforhodamine B solution in 1% (v/v) acetic acid was added per well and the cells were incubated for 30 minutes at room temperature. Following staining, plates were washed four times with 1% acetic acid to remove any unbound dye and then allowed to air dry for 5 minutes. The stain was solubilized with 100 ul of 10 mM Tris pH 10.5 per well and placed on an orbital rotator for 5 minutes. The absorbance was read at 570 nm. Percentage growth was calculated using the absorbance readings from the time zero plate (Tz) and the dilution series plate […] which included a column of cells grown in media without compound as a control (C) using the formulas:
[(Ti−Tz)/(C−Tz)]×100 for concentrations for which Ti>/=Tz
[(Ti−Tz)/Tz]×100 for concentrations for which Ti<Tz.
Three dose response parameters were calculated for each experimental agent. Growth inhibition of 50% (GI50) was calculated from [(Ti−Tz)/(C−Tz)]×100=50, which was the drug concentration resulting in a 50% reduction in the net protein increase (as measured by SRB staining) in control cells during the drug incubation. The drug concentration resulting in total growth inhibition (TGI) was calculated from Ti=Tz. The LC50 (concentration of drug resulting in a 50% reduction in the measured protein at the end of the drug treatment as compared to that at the beginning) indicating a net loss of cells following treatment ws calculated from [(Ti−Tz)/Tz]×100=−50. Values are calculated for each of these three parameters if the level of activity was reached; however, if the effect was not reached or was exceeded, the value for that parameter is expressed as greater or less than the maximum or minimum concentration tested.

[6] = group with IC50 greater than 100 nM

T1 sequence (P12931 whole entry): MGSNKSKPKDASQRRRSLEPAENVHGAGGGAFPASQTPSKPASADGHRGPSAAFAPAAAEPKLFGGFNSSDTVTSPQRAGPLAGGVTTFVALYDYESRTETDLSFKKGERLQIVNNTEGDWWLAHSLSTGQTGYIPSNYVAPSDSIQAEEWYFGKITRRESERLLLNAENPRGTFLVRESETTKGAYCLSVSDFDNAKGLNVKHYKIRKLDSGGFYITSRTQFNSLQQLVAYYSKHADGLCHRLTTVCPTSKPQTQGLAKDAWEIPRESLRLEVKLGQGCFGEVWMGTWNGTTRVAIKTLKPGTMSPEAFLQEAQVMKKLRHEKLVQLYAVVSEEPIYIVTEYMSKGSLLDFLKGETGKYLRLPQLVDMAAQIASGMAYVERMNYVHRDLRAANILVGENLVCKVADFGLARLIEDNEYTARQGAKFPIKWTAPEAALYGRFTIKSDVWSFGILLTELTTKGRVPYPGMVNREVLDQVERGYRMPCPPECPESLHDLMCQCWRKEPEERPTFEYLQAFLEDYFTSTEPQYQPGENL

| SMILES | IC50 ([1]; 40 minutes at room temperature) [nM] | IC50 [2] [nM] | IC50 ([3]; 40 minutes at room temperature) [nM] | IC50 [4] [nM] | IC50 [1, 6] [nM] | IC50 [4, 6] [nM] | IC50 [5] [nM] | IC50 [3, 6] [nM] |
| --- | --- | --- | --- | --- | --- | --- | --- | --- |
| CC(=O)Nc1cccc(-c2nc(Nc3cc(C)[nH]n3)cc(N3CCN(C)CC3)n2)c1 [Example 167, N-(3-(4-(5-methyl-1H-pyrazol-3-ylamino)-6-(4-methylpiperazin-1-yl)pyrimidin-2-yl)phenyl)acetamide] | ≤ 100 | ≤ 100 | ≤ 100 | ≤ 100 | – | – | – | – |
| Cc1cc(Nc2cc(NC3CCOCC3)nc(-c3cccc(C)c3C)n2)n[nH]1 [Example 180, 2-(2,3-dimethylphenyl)-N^4-(5-methyl-1H-pyrazol-3-yl)-N^6-(tetrahydro-2H-pyran-4-yl)pyrimidine-4,6-diamine] | – | ≤ 100 | ≤ 100 | – | ≤ 1000 | ≤ 1000 | – | – |
| Cc1cc(Nc2cc(N3CCN(C)CC3)nc(-c3ccccc3F)n2)n[nH]1 [Compound 34, 2-(2-fluorophenyl)-N-(5-methyl-1H-pyrazol-3-yl)-6-(4-methylpiperazin-1-yl)pyrimidin-4-amine] | ≤ 100 | – | ≤ 100 | ≤ 100 | – | – | 1000 to 10000 | – |
| COc1ccc(-c2nc(Nc3cc(C)[nH]n3)cc(NC3CCOCC3)n2)cc1 [Compound 28, 2-(4-methoxyphenyl)-N^4-(5-methyl-1H-pyrazol-3-yl)-N^6-(tetrahydro-2H-pyran-4-yl)pyrimidine-4,6-diamine] | ≤ 100 | – | – | ≤ 100 | – | – | 1000 to 10000 | ≤ 1000 |
| COCCN(C)c1cc(Nc2cc(C)[nH]n2)nc(-c2cccc(C)c2C)n1 [Example 181, 2-(2,3-dimethylphenyl)-N^4-(2-methoxyethyl)-N^4-methyl-N^6-(5-methyl-1H-pyrazol-3-yl)pyrimidine-4,6-diamine] | – | ≤ 100 | – | – | ≤ 1000 | ≤ 1000 | – | ≤ 1000 |
| Cc1ccc(C)c(-c2nc(Nc3cc(C)[nH]n3)cc(NC3CCOCC3)n2)c1 [Example 206, 2-(2,5-dimethylphenyl)-N^4-(5-methyl-1H-pyrazol-3-yl)-N^6-(tetrahydro-2H-pyran-4-yl)pyrimidine-4,6-diamine] | – | ≤ 100 | – | – | ≤ 1000 | ≤ 1000 | – | ≤ 1000 |
| Cc1cc(Nc2cc(NC3CCOCC3)nc(-c3ccccc3Cl)n2)n[nH]1 [Compound 24, 2-(2-chlorophenyl)-N^4-(5-methyl-1H-pyrazol-3-yl)-N^6-(tetrahydro-2H-pyran-4-yl)pyrimidine-4,6-diamine] | – | – | – | – | ≤ 1000 | ≤ 1000 | – | ≤ 1000 |
| Cc1cc(Nc2cc(N3CCN(C)CC3)nc(-c3cccc(O)c3)n2)n[nH]1 [Example 161, 3-(4-(5-methyl-1H-pyrazol-3-ylamino)-6-(4-methylpiperazin-1-yl)pyrimidin-2-yl)phenol] | ≤ 100 | ≤ 100 | ≤ 100 | ≤ 100 | – | – | – | – |
| Cc1cc(Nc2cc(NC3CCOCC3)nc(-c3cccc4c3OCCO4)n2)n[nH]1 [Compound 129] | – | ≤ 100 | – | – | ≤ 1000 | ≤ 1000 | – | ≤ 1000 |
